Values after ≈ are worked out from the molar mass of the structure shown. Where two headings read alike, the source gives them in different places.
Experiments:
Enterococcus faecalis [1] = assay: MIC, broth microdilution (CLSI); format: cell-based; conditions: Enterococcus faecalis, read-out: MIC
Description: (§1) The solvent for all of the compounds was deionized water (DIW), and all of the compounds dissolved in the solvent. The stock solutions were allowed to stand in DIW for one hour at room temperature prior to testing to allow time for auto-sterilization.
(§2) The test organisms were originally received from clinical sources, or from the American Type Culture Collection. When received, the organisms were sub-cultured onto an appropriate agar medium. Following incubation, colonies were harvested from these plates and cell suspensions prepared and frozen at −80° C. On the day prior to assay, a frozen vial of each culture was thawed and the contents were streaked for isolation onto either Tryptic Soy Agar (Becton Dickinson, Sparks, Md.) or Tryptic Soy Agar (Enhanced Hemolysis; Becton Dickinson) supplemented with 5% sheep blood for streptococci. The agar plates were incubated overnight at 35° C. Staphylococcus aureus ATCC 29213 and Enterococcus faecalis ATCC 29212 were included as quality control isolates in the assay.
(§3) The test medium for the broth microdilution testing was Mueller Hinton II broth (MHB II; BBL# 212322, Lot # 6024003, Becton Dickinson). The broth was prepared at 1.05× normal weight/volume to offset the 5% volume of the drug solution in the final test plates.
(§4) CLSI guidelines recommend that Mueller-Hinton II broth be adjusted to contain 50 mg/L of Ca^++ ions for proper daptomycin MIC results. Since Mueller-Hinton II broth has already been adjusted by the manufacturer to contain approximately 25 mg/L of Ca^++ ions, an additional 25 mg/L of Ca^++ ions was adjusted with 10 mg/mL of CaCl2.2H2O (Lot# 084K0215; Sigma-Aldrich) added at a rate of 0.1 mL/L of broth, for each desired increment of 1 mg/L. This supplemented Mueller-Hinton II broth was used only in wells containing daptomycin.
(§5) MIC values were determined using a broth microdilution method as recommended by the Clinical and Laboratory Standards Institute (Clinical and Laboratory Standards Institute^a. Methods for Dilution Antimicrobial Susceptibility Tests for Bacteria That Grow Aerobically; Approved Standard-Seventh Edition. Clinical and Laboratory Standards Institute document M7-A7 [ISBN 1-56238-587-9]. Clinical and Laboratory Standards Institute, 940 West Valley Road, Suite 1400, Wayne, Pa. 19087-1898 USA, 2006). Automated liquid handlers (Multidrop 384, Labsystems, Helsinki, Finland; Biomek 2000 and Multimek 96, Beckman Coulter, Fullerton Calif.) were used to conduct serial dilutions and make liquid transfers.
(§6) Wells of two standard 96-well microdilution plates (Falcon 3918; Becton Dickinson) were filled with 150 μL of […] using the Multidrop 384. These plates were used to prepare the drug “mother plates” that provided the serial drug dilutions for replicate “daughter plates”. The Biomek 2000 was used to transfer 150 μl of each stock solution from the wells of column 1 of a deep well plate to the corresponding wells in column 1 of the mother plate and to make eleven 2-fold serial dilutions in the mother plates. The wells of column 12 contained no drug and were the organism growth control wells. Each mother plate has the capacity to create a total of 12 daughter plates.
(§7) The daughter plates were loaded with 180 μL of one of the media described above using the Multidrop 384. The wells of the daughter plates ultimately contained 180 μL of MHB II, 10 μL of drug solution, and 10 μL of bacterial inoculum prepared in broth appropriate to the test organism (1.05×). The daughter plates were prepared on the Multimek 96 instrument, which transferred 10 μL of drug solution from each well of the mother plate to each corresponding well of each daughter plate in a single step. […]

[2] = tested on: Staphylococcus epidermidis; assay: MIC, broth microdilution (CLSI); format: cell-based; conditions: read-out: MIC
Description: as §1, §2, §3, §4, §5, §6, §7

Enterococcus faecium = assay: MIC, broth microdilution (CLSI); format: cell-based; conditions: Enterococcus faecium, read-out: MIC
Description: (§8) The stock solutions were allowed to stand in DIW for one hour at room temperature prior to testing to allow time for auto-sterilization.
as §2, §3, §4, §5, §6
(§9) The daughter plates were loaded with 180 μL of one of the media described above using the Multidrop 384. The wells of the daughter plates ultimately contained 180 μL of MHB II, 10 μL of drug solution, and 10 μL of bacterial inoculum prepared in broth appropriate to the test organism (1.05×). The daughter plates were prepared on the Multimek 96 instrument, which transferred 10 μL of drug solution from each well of the mother plate to each corresponding well of each daughter plate in a single step.

Staphylococcus aureus [3] = assay: MIC, broth microdilution (CLSI); format: cell-based; conditions: Staphylococcus aureus, read-out: MIC
Description: as §8, §2, §3, §4, §5, §6, §9

Streptococcus pneumoniae = assay: MIC, broth microdilution (CLSI); format: cell-based; conditions: Streptococcus pneumoniae, read-out: MIC
Description: as §1, §2, §3
For streptococci, lysed horse blood (Lot # H88621; Cleveland Scientific, Bath, Ohio) was added to the MHB II at a final concentration of 2%. […]
as §5, §6, §9
Standardized inoculum of each organism was prepared following Clinical and Laboratory Standards Institute (Clinical and Laboratory Standards Institute^b. Performance Standards for Antimicrobial Susceptibility Testing; Sixteenth Informational Supplement. CLSI document M100-S16 [ISBN 1-56238-588-7]. Clinical and Laboratory Standards Institute, 940 West Valley Road, Suite 1400, Wayne, Pa. 19087-1898 USA, 2006) methods. The inoculum for each organism was dispensed into sterile reservoirs divided by length (Beckman Coulter), and the Biomek 2000 was used to inoculate the plates. […]

Streptococcus pyogenes = assay: MIC, broth microdilution (CLSI); format: cell-based
Description: as §1, §2, §3
For streptococci, lysed horse blood (Lot # H88621; Cleveland Scientific, Bath, Ohio) was added to the MHB II at a final concentration of 2%.
as §4, §5, §6, §7

Enterococcus faecalis [4] = conditions: quality control range for Enterococcus faecalis ATCC 29212 (# 101); cited from earlier work
Staphylococcus aureus [5] = conditions: quality control range for Staphylococcus aureus ATCC 29213 (# 100); cited from earlier work
[6] = ATCC29212, Enterococcus faecalis Micromyx # 101, VSE, CLSI QC strain (ATCC 29212)
[7] = Enterococcus faecalis Micromyx # 413, LZD^R from res. dev. or other
[8] = Enterococcus faecalis Micromyx # 486, Van A
[9] = Enterococcus faecalis Micromyx # 1088, Van B
[10] = Staphylococcus epidermidis Micromyx # 108, MRSE
[11] = Staphylococcus epidermidis Micromyx # 835, MSSE
[12] = Enterococcus faecium Micromyx # 750, Van^S
[13] = Enterococcus faecium Micromyx # 752, Van A
[14] = Enterococcus faecium Micromyx # 1120, Van B
[15] = Enterococcus faecium Micromyx # 1721, DAP^R
[16] = ATCC 29213 / MSSA, Staphylococcus aureus Micromyx # 100, MSSA, CLSI QC strain (ATCC 29213)
[17] = MRSA, Staphylococcus aureus Micromyx # 1004, MRSA, FA^R
[18] = MRSA, Staphylococcus aureus Micromyx # 1730, Community-acquired MRSA
[19] = MSSA, Staphylococcus aureus Micromyx # 1002, MSSA, macrolide^R
[20] = Staphylococcus aureus Micromyx # 106, RA^R
[21] = Staphylococcus aureus Micromyx # 1016, FA^R
[22] = Staphylococcus aureus Micromyx # 1651, LZD^R clinical isolate
[23] = Staphylococcus aureus Micromyx # 1727, GM^R
[24] = Staphylococcus aureus Micromyx # 1731, CHL^R
[25] = VISA, Staphylococcus aureus Micromyx # 1723, VISA
[26] = Streptococcus pneumoniae Micromyx # 374, Wild type
[27] = Streptococcus pneumoniae Micromyx # 927, mef(A)
[28] = Streptococcus pneumoniae Micromyx # 928, erm(B)
[29] = Streptococcus pyogenes Micromyx # 942, macrolide^R
[30] = Streptococcus pyogenes Micromyx # 985, Susceptible, read-out: MIC

| Compound | MIC (Enterococcus faecalis [1]; [6]) | MIC (Enterococcus faecalis [1]; [7]) | MIC (Enterococcus faecalis [1]; [8]) | MIC (Enterococcus faecalis [1]; [9]) | MIC [2, 10] | MIC [2, 11] | MIC (Enterococcus faecium; [12]) | MIC (Enterococcus faecium; [13]) | MIC (Enterococcus faecium; [14]) | MIC (Enterococcus faecium; [15]) | MIC (Staphylococcus aureus [3]; [16]) | MIC (Staphylococcus aureus [3]; [17]) | MIC (Staphylococcus aureus [3]; [18]) | MIC (Staphylococcus aureus [3]; [19]) | MIC (Staphylococcus aureus [3]; [20]) | MIC (Staphylococcus aureus [3]; [21]) | MIC (Staphylococcus aureus [3]; [22]) | MIC (Staphylococcus aureus [3]; [23]) | MIC (Staphylococcus aureus [3]; [24]) | MIC (Staphylococcus aureus [3]; [25]) | also measured |
| --- | --- | --- | --- | --- | --- | --- | --- | --- | --- | --- | --- | --- | --- | --- | --- | --- | --- | --- | --- | --- | --- |
| CC(=O)NC[C@H]1CN(c2ccc(N3CCOCC3)c(F)c2)C(=O)O1 [Linezolid, linezolid] | 8 µg/mL (≈ 23.7 µM) | 64 µg/mL (≈ 190 µM) | 4 µg/mL (≈ 11.9 µM) | 4 µg/mL (≈ 11.9 µM) | 4 µg/mL (≈ 11.9 µM) | 4 µg/mL (≈ 11.9 µM) | 4 µg/mL (≈ 11.9 µM) | 4 µg/mL (≈ 11.9 µM) | 4 µg/mL (≈ 11.9 µM) | 2 µg/mL (≈ 5.93 µM) | 8 µg/mL (≈ 23.7 µM) | 4 µg/mL (≈ 11.9 µM) | 8 µg/mL (≈ 23.7 µM) | 4 µg/mL (≈ 11.9 µM) | 4 µg/mL (≈ 11.9 µM) | 8 µg/mL (≈ 23.7 µM) | 64 µg/mL (≈ 190 µM) | 4 µg/mL (≈ 11.9 µM) | 8 µg/mL (≈ 23.7 µM) | 4 µg/mL (≈ 11.9 µM) | MIC (Streptococcus pneumoniae; [26]): 4 µg/mL (≈ 11.9 µM); MIC (Streptococcus pneumoniae; [27]): 2 µg/mL (≈ 5.93 µM); MIC (Streptococcus pneumoniae; [28]): 2 µg/mL (≈ 5.93 µM); MIC (Streptococcus pyogenes; [29]): 4 µg/mL (≈ 11.9 µM); MIC (Streptococcus pyogenes; [30]): 4 µg/mL (≈ 11.9 µM); MIC, CLSI Recommended Range (Enterococcus faecalis [4]): 1 to 4 µg/mL; MIC, CLSI Recommended Range (Staphylococcus aureus [5]): 1 to 4 µg/mL |
| CCCCCCCCCC(=O)N[C@@H](Cc1c[nH]c2ccccc12)C(=O)N[C@H](CC(N)=O)C(=O)N[C@@H](CC(=O)O)C(=O)N[C@@H]1C(=O)NCC(=O)N[C@@H](CCCN)C(=O)N[C@@H](CC(=O)O)C(=O)N[C@H](C)C(=O)N[C@@H](CC(=O)O)C(=O)NCC(=O)N[C@H](CO)C(=O)N[C@@H]([C@H](C)CC(=O)O)C(=O)N[C@@H](CC(=O)c2ccccc2N)C(=O)O[C@@H]1C [Daptomycin] | 1 µg/mL (≈ 0.617 µM) | 0.5 µg/mL (≈ 0.309 µM) | 0.5 µg/mL (≈ 0.309 µM) | 1 µg/mL (≈ 0.617 µM) | 0.5 µg/mL (≈ 0.309 µM) | 0.5 µg/mL (≈ 0.309 µM) | ≤ 0.12 µg/mL | 2 µg/mL (≈ 1.23 µM) | 2 µg/mL (≈ 1.23 µM) | 8 µg/mL (≈ 4.94 µM) | 0.5 µg/mL (≈ 0.309 µM) | 0.25 µg/mL (≈ 0.154 µM) | 0.5 µg/mL (≈ 0.309 µM) | 0.5 µg/mL (≈ 0.309 µM) | 0.5 µg/mL (≈ 0.309 µM) | 0.25 µg/mL (≈ 0.154 µM) | 0.5 µg/mL (≈ 0.309 µM) | 0.25 µg/mL (≈ 0.154 µM) | 0.25 µg/mL (≈ 0.154 µM) | 1 µg/mL (≈ 0.617 µM) | MIC (Streptococcus pneumoniae; [26]): ≤ 0.12 µg/mL; MIC (Streptococcus pneumoniae; Streptococcus pneumoniae Micromyx # 379, parC, gyrA, gyrB): 0.25 µg/mL (≈ 0.154 µM); MIC (Streptococcus pneumoniae; [27]): ≤ 0.12 µg/mL; MIC (Streptococcus pneumoniae; [28]): ≤ 0.12 µg/mL; MIC (Streptococcus pyogenes; [29]): ≦0.12 μg/mL; MIC (Streptococcus pyogenes; [30]): ≤ 0.12 µg/mL; MIC, CLSI Recommended Range (Enterococcus faecalis [4]): 1 to 4 µg/mL; MIC, CLSI Recommended Range (Staphylococcus aureus [5]): 0.25 to 1 µg/mL |

From patent US20090124539A1, “Methods of treating infection” (priority 2007, published 2009)
